Reference: patent US10495630B2, “Methods for the determination of compounds or compositions for the treatment of lipofuscin related diseases and compounds or compositions” (KATAIRO GMBH, priority 2014, dated 2019)
Like-named read-outs stand apart in the source and are kept apart here.

Experiments:
[1] = tested on: Abca4 (−/−) mice; assay: A2E concentration in eyes of Abca4 (−/−) mice after intravitreal injection, HPLCMSMS; assay type: in vivo; conditions: for response vs control in vivo at 40000 µg/mL / response vs control in vivo at 20000 µg/mL: Mus musculus, 168 h, read-out: % of A2E relative to age matched untreated
Source text: […] […] The left eye was not treated and maintained as a control. Untreated eyes of age-matched mice lacking the Abca4 transporter were an additional control.
The concentration in each treated eye was then expressed as a percentage of the average concentration in all untreated eyes in the mice of the same age.
The left eye was not treated and maintained as a control. Untreated eyes of age-matched mice lacking the Abca4 transporter were an additional control.
The left eye was not treated and maintained as a control. Untreated eyes of age-matched mice lacking the Abca4 transporter were an additional control. […] Tryptophan is capable of absorbing and re-radiating light energy, as is riboflavin.
Water solutions were diluted 1:3 with acetonitrile and then sealed in vials for injection. 6 μL of the water acetonitrile solutions were injected onto a 2×50 mm Phenyl derived HPLC column (3 μm) and eluted with a gradient from 20% acetonitrile to 100% acetonitrile over 4 minutes at a flow rate of 500 μL/minute.

[2] = tested on: human retinal pigment epithelium (RPE) cells; assay: Degradation of lipofuscin in human RPE cells (micrographs after one week); assay type: cell-based; conditions: one week incubation
Experimental: To explore the role of the reactive chemical species the human retinal pigment epithelium (RPE) cells were treated with the super oxide anion donor (SAD) soraprazan ((7R,8R,9R)-2,3-Dimethyl-8-hydroxy-7-ethoxy-9-phenyl-7,8,9,10-tetrahydro-imidazo-[1,2-h][1,7]-naphthyridin)—a member of the THPE family—either alone or in combination with a known radical oxygen scavenger, cardioxane.
After growing the hRPE-cells to confluence, the test compounds were added to seven cell cultures and the cells were incubated at 37° C. and 5% CO2. The SAD was added to the cell cultures in a concentration of 50 μg/ml either alone or in combination with cardioxane in a concentration of 10 μM, 50 μM or 100 μM. Additionally, three cell cultures were incubated only with cardioxane in a concentration of 10 μM, 50 μM or 100 μM. As control, one cell culture was grown without test compounds.
After one week of incubation micrographs of the differently incubated RPE cells were taken as shown in FIG. 2A to H. In the original images, lipofuscin in cells is visible as a yellow-gold-orange fluorescent structure, before a blue background. In the grey scale reproduction in FIG. 2 the yellow-gold-orange structure appear light grey (yellow) or dark grey (gold-orange) before a grey background. Areas of degradation of lipofuscin in the hRPE cells appears as bright blue to whitish structures which appear white in the in the grey scale reproduction and are circled in FIG. 2A.
The bright blue structures are only observed in the experimental set up with SAD alone (FIG. 2A).

[3] = tested on: melanin A2E particles; assay: Assay for binding to A2E melanin particles; design: species or system S. officinalis; conditions: FIG. 3A; 37° C., 4 h
Experimental: To study the binding of A2E to melanin, a suspension of 2 mg/ml natural melanin (S. officinalis) is prepared in PBS, pH 7.4. The melanin suspension is brought to 37° C. and sonicated for 15 min to form a uniform suspension. The melanin suspension (0.75 ml) is measured in aliquots into glass test tubes (12×75 mm) under continuous shaking to avoid sedimentation. The solution of A2E (0.75 ml) is added to the above-mentioned melanin aliquots, and the tubes will be incubated in a shaker incubator at 37° C. and 300 rpm for 4 h.
Controls are prepared by incubating A2E in the absence of melanin in incubation medium and by incubating melanin without A2E. Compounds are added to melanin suspension from stock solutions. After incubation, the suspensions are centrifuged at 13,000 rpm for 15 min at room temperature to remove the melanin granules. The supernatant is collected, diluted with acetonitrile and analyzed by an LC-MS/MS method to determine the concentration of […] in the supernatant. The kinetic parameters of binding study, i.e., maximal binding capacity (rmax) and the binding affinity (k) are determined for A2E according to the previously reported method (Cheruvu et al., 2008).
A high percentage of soraprazan and demethoxysoraprazan—about 46% and about 53%, respectively—are found bound to the melanin A2E particles.

[4] = chelators or metal interactors, intravitreal 2 μl of 40 mg/ml or concentration as indicated, one week after injection
[5] = redox active small molecules and chelator, intravitreal 2 μl of 20 mg/ml, 16 hours after injection
[6] = tetracycline antibiotics, intravitreal 2 μl of 20 mg/ml, one week after injection
[7] = dyes and porphyrins, intravitreal 2 μl of 20 mg/ml, one week after injection
[8] = amino acids or metabolites, intravitreal 2 μl of 40 mg/ml, one week after injection
[9] = quinolones, intravitreal 2 μl of 20 mg/ml, one week after injection
[10] = permeability agents, intravitreal 2 μl of 40 mg/ml or concentration as indicated in the table, one week after injection
[11] = redox active and chelating protein, intravitreal 2 μl of 20 mg/ml, one week after injection

c1cnc2c(c1)ccc1cccnc12 [1,10-phenanthroline]
response vs control in vivo at 40000 µg/mL [1, 4]: 91%
Concentration A2E (μM) in the treated eye [1, 4]: 20 µM

C[C@@H]1CC[C@H]2[C@@H](C)C(=O)O[C@@H]3O[C@@]4(C)CC[C@@H]1[C@]32OO4 [Artemesinin]
% of A2E relative to age matched untreated [1, 5]: 75%
Concentration A2E (μM) in the treated eye [1, 5]: 38 µM

O=C(N[C@H](CO)[C@H](O)c1ccc([N+](=O)[O-])cc1)C(Cl)Cl [Chloramphenicol]
response vs control in vivo at 20000 µg/mL [1, 6]: 70%
Concentration A2E (μM) in the treated eye [1, 6]: 24 µM

CN(C)c1ccc(C(=C2C=CC(=[N+](C)C)C=C2)c2ccc(N(C)C)cc2)cc1 [Crystal violet]
response vs control in vivo at 20000 µg/mL [1, 7]: 71%
Concentration A2E (μM) in the treated eye [1, 7]: 23 µM

N[C@@H](CS)C(=O)O [Cysteine]
response vs control in vivo at 40000 µg/mL [1, 8]: 59%
Concentration A2E (μM) in the treated eye [1, 8]: 12 µM
% of A2E relative to age matched untreated [1, 4]: 59%
Concentration A2E (μM) in the treated eye [1, 4]: 12 µM

C[C@H]1c2cccc(O)c2C(=O)C2=C(O)[C@]3(O)C(=O)C(C(N)=O)=C(O)[C@@H](N(C)C)[C@@H]3[C@@H](O)[C@@H]21 [Doxycycline]
response vs control in vivo at 20000 µg/mL [1, 6]: 81%
Concentration A2E (μM) in the treated eye [1, 6]: 28 µM

Cc1cc2nc3c(=O)[nH]c(=O)nc-3n(C[C@H](O)[C@H](O)[C@H](O)COP(=O)(O)OP(=O)(O)OC[C@H]3O[C@@H](n4cnc5c(N)ncnc54)[C@H](O)[C@@H]3O)c2cc1C [FAD]
% of A2E relative to age matched untreated [1, 7]: 99%
Concentration A2E (μM) in the treated eye [1, 7]: 23 µM

CN1CCN(c2c(F)cc3c(=O)c(C(=O)O)cn(CCF)c3c2F)CC1 [Fleroxacin]
response vs control in vivo at 20000 µg/mL [1, 9]: 74%
Concentration A2E (μM) in the treated eye [1, 9]: 24 µM

O=C1OC2(c3ccc(O)cc3Oc3cc(O)ccc32)c2ccccc21 [Fluoroscein]
response vs control in vivo at 20000 µg/mL [1, 7]: 85%
Concentration A2E (μM) in the treated eye [1, 7]: 20 µM

N[C@@H](CCC(=O)N[C@@H](CS)C(=O)NCC(=O)O)C(=O)O [Glutathione]
response vs control in vivo at 40000 µg/mL [1, 8]: 89%
Concentration A2E (μM) in the treated eye [1, 8]: 35 µM

O=C1/C(=C2\Nc3ccc(S(=O)(=O)[O-])cc3C2=O)Nc2ccc(S(=O)(=O)[O-])cc21.[Na+].[Na+] [Indigocarmine]
% of A2E relative to age matched untreated [1, 7]: 98%
Concentration A2E (μM) in the treated eye [1, 7]: 22 µM

CC1(C)C(/C=C/C=C/C=C/C=C2\N(CCCCS(=O)(=O)O)c3ccc4ccccc4c3C2(C)C)=[N+](CCCCS(=O)(=O)[O-])c2ccc3ccccc3c21 [Indocyanine green]
response vs control in vivo at 20000 µg/mL [1, 7]: 66%
Concentration A2E (μM) in the treated eye [1, 7]: 20 µM

CN(C)c1ccc(O)c2c1C[C@H]1C[C@H]3[C@H](N(C)C)C(O)=C(C(N)=O)C(=O)[C@@]3(O)C(O)=C1C2=O [Minocycline]
response vs control in vivo at 20000 µg/mL [1, 6]: 100%
Concentration A2E (μM) in the treated eye [1, 6]: 33 µM

CCn1cc(C(=O)O)c(=O)c2cc(F)c(N3CCNCC3)cc21 [Norfloxacin]
response vs control in vivo at 20000 µg/mL [1, 9]: 106%
Concentration A2E (μM) in the treated eye [1, 9]: 36 µM

c1ccc2c(c1)Nc1ccccc1S2 [Phenothiazine]
response vs control in vivo at 20000 µg/mL [1]: 85%
Concentration A2E (μM) in the treated eye [1, 7]: 27 µM

c1ccc2c(c1)-c1nc-2nc2[nH]c(nc3nc(nc4[nH]c(n1)c1ccccc41)-c1ccccc1-3)c1ccccc21 [Phthalocyanine]
% of A2E relative to age matched untreated [1, 7]: 142%
Concentration A2E (μM) in the treated eye [1, 7]: 31 µM

C=C[C@H]1C[N@@]2CC[C@H]1C[C@H]2[C@H](O)c1ccnc2ccc(OC)cc12 [Quinine]
response vs control in vivo at 20000 µg/mL [1, 7]: 81%
Concentration A2E (μM) in the treated eye [1, 7]: 17 µM

Cc1cc2nc3c(=O)[nH]c(=O)nc-3n(C[C@H](O)[C@H](O)[C@H](O)CO)c2cc1C [Riboflavin]
response vs control in vivo at 40000 µg/mL [1, 8]: 91%
Concentration A2E (μM) in the treated eye [1, 8]: 19 µM

O=C([O-])c1c(Cl)c(Cl)c(Cl)c(Cl)c1-c1c2cc(I)c(=O)c(I)c-2oc2c(I)c([O-])c(I)cc12.[Na+].[Na+] [Rose bengal]
% of A2E relative to age matched untreated [1, 7]: 85%
Concentration A2E (μM) in the treated eye [1, 7]: 16 µM

C[C@@H]1CN(c2c(F)c(N)c3c(=O)c(C(=O)O)cn(C4CC4)c3c2F)C[C@H](C)N1 [Sparfloxacin]
response vs control in vivo at 20000 µg/mL [1, 9]: 99%
Concentration A2E (μM) in the treated eye [1, 9]: 36 µM

N[C@@H](Cc1c[nH]c2ccccc12)C(=O)O [Tryptophan]
response vs control in vivo at 40000 µg/mL [1, 8]: 66%
Concentration A2E (μM) in the treated eye [1, 8]: 13 µM

C[C@@H](CN1CC(=O)NC(=O)C1)N1CC(=O)NC(=O)C1 [cardioxane]
Effect on the lipofuscin degradation seen with SAD ([2]; cardioxane 10, 50 or 100 μM added to SAD 50 μg/ml): abolishes the degradation of lipofuscin
Degradation / removal of lipofuscin in hRPE cells ([2]; test compound alone (SAD 50 μg/ml; cardioxane 10, 50 or 100 μM)): do not show any degradation of lipofuscin

Cyclodextrin
% of A2E relative to age matched untreated [1, 10]: 83%
Concentration A2E (μM) in the treated eye [1, 10]: 20 µM

Cytochrome C: redox active electron carrier protein used as a model peroxidase
% of A2E relative to age matched untreated [1, 11]: 81%
Concentration A2E (μM) in the treated eye [1, 11]: 18 µM

R/S-demethoxysoraprazan
Proportion of compound bound to the melanin A2E particles after incubation [3]: bind to the A2E melanin particles although to a lower percentage

Transferrin (apo): protein capable of binding iron with high affinity
% of A2E relative to age matched untreated [1, 11]: 82%
Concentration A2E (μM) in the treated eye [1, 11]: 15 µM

demethoxysoraprazan
Proportion of compound bound to the melanin A2E particles after incubation [3]: about 53%
